# Assay results reported in patent US10000535B2, “Template-fixed peptidomimetics” (POLYPHOR LTD., priority 2007, dated 2018).
# Non-standard residues stand in square brackets, D forms with d. Residues, ends and D or L forms follow the SMILES beside them. Tic = O=C(O)[C@@H]1Cc2ccccc2CN1; Orn = NCCC[C@H](N)C(=O)O; Aze = O=C(O)[C@@H]1CCN1; Aib = CC(C)(N)C(=O)O
# Target: T1, human UTR2 receptor (Homo sapiens, UniProt Q9UKP6)
# T1 construct: expressed in transfected cells; host or cells: mouse pre-B cell line 300-19
# T1 sequence (Q9UKP6 1-389): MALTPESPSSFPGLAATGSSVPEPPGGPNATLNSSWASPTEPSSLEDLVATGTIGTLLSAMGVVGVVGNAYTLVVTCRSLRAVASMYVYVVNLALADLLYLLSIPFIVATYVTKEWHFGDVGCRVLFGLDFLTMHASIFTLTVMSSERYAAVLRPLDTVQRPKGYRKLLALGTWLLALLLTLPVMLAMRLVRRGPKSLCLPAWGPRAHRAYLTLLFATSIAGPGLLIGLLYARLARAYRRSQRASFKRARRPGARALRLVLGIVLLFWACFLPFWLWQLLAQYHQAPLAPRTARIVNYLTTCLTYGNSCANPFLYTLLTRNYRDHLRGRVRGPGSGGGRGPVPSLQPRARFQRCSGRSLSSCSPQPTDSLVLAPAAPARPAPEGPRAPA
# Assay: Calcium mobilization assay, agonist activity at urotensin receptor
# Format: cell-based
# Details: mouse pre-B 300-19 cells transfected with human UTR2, read-out: EC50% (nM) ± SD, Urotensin receptor
# Method: (§1) The mouse pre-B cell line 300-19 was stably transfected with the cDNA encoding the human UTR2 receptor (GenBank Acc#NM_018949), and expression was confirmed with a positive calcium signal in response to human urotensin (Sigma Aldrich). Increases in intracellular calcium were monitored using a Flexstation 384 (Molecular Devices, Sunnyvale, Calif.). The cells were batch loaded with the Calcium 3 Assay kit (Molecular Devices) in assay buffer (Hanks Balanced salt solution, HBSS, 20 mM HEPES, pH 7.4, 0.1% BSA) for 1 h at room temperature and labeled cells were dispensed into either black 96 well or 384 well assay plates (Greiner). Calcium mobilization induced by urotensin or compounds was measured in the Flexstation 384 (excitation, […]) for 70 seconds. Agonist activity was determined by direct addition of ligand or peptides, while antagonists were identified by pre-incubation of compounds with cells prior to urotensin addition. A dose response curve (compound concentration versus % maximum response for urotensin) was determined for each active agonist and antagonist and was fitted to a four parameter logistic equation using SoftmaxPro 4.6 (Molecular Devices), from which EC50% and IC50% values were calculated.
row,Compound,EC50 [nM]
1,C[C@@H](O)[C@@H]1NC(=O)[C@@H]2CCN2C(=O)[C@H]2CCCN2C(=O)[C@H](Cc2ccc(O)cc2)NC(=O)[C@H](CCCCN)NC(=O)[C@H](Cc2c[nH]c3ccccc23)NC1=O [Example 7] (cyclo(TWKY[dP][Aze])),286 ± 66
2,CC[C@H](C)[C@@H]1NC(=O)C[C@@H]2NC(=O)[C@@H]3C[C@@H](CN3C2=O)NC(=O)[C@H](Cc2ccc(O)cc2)NC(=O)[C@H](CCCCN)NC(=O)[C@H](Cc2c[nH]c3ccccc23)NC1=O [Example 14],189 ± 13
3,COc1ccc2c3c1CNC(=O)[C@H](Cc1ccc(O)cc1)NC(=O)[C@H](CCCCN)NC(=O)[C@H](Cc1c[nH]c4ccccc14)NC(=O)[C@H](CCC(N)=O)NC(=O)Cc1c(OC)ccc(c1O3)C2(C)C [Example 10],170 ± 40
4,CC[C@H](C)[C@@H]1NC(=O)Cc2c(OC)ccc3c2Oc2c(ccc(OC)c2CNC(=O)[C@H](Cc2ccc(O)cc2)NC(=O)[C@H](CCCCN)NC(=O)[C@H](Cc2c[nH]c4ccccc24)NC1=O)C3(C)C [Example 11],192 ± 14
5,COc1ccc2c3c1CNC(=O)[C@H](Cc1c[nH]cn1)NC(=O)[C@H](Cc1ccc(O)cc1)NC(=O)[C@H](CCCCN)NC(=O)[C@H](Cc1c[nH]c4ccccc14)NC(=O)Cc1c(OC)ccc(c1O3)C2(C)C [Example 12],218
6,COc1ccc2c3c1CNC(=O)[C@H](Cc1ccc(O)cc1)NC(=O)[C@H](CCCCN)NC(=O)[C@H](Cc1c[nH]c4ccccc14)NC(=O)[C@H](CCC(=O)O)NC(=O)Cc1c(OC)ccc(c1O3)C2(C)C [Example 13],274 ± 5

# Further lines, results first:
row,EC50 [nM],Compound
1,68 ± 32,CC[C@H](C)[C@@H]1NC(=O)[C@@H]2Cc3ccccc3CN2C(=O)[C@H]2CCCN2C(=O)[C@H](Cc2ccc(O)cc2)NC(=O)[C@H](CCCCN)NC(=O)[C@H](Cc2c[nH]c3ccccc23)NC1=O [Example 2] (cyclo(IWKY[dP][Tic]))
2,82 ± 13,NCCCC[C@@H]1NC(=O)[C@H](Cc2c[nH]c3ccccc23)NC(=O)[C@H](CCC(N)=O)NC(=O)[C@@H]2Cc3ccccc3CN2C(=O)[C@H]2CCCN2C(=O)[C@H](Cc2ccc(O)cc2)NC1=O [Example 3] (cyclo(QWKY[dP][Tic]))
3,18 ± 3,COc1ccc2c3c1CNC(=O)[C@H](Cc1ccc(O)cc1)NC(=O)[C@H](CCCCN)NC(=O)[C@H](Cc1c[nH]c4ccccc14)NC(=O)[C@H](Cc1ccccc1)NC(=O)Cc1c(OC)ccc(c1O3)C2(C)C [Example 8]
4,45 ± 22,CC[C@H](C)[C@@H]1NC(=O)[C@@H]2CCN2C(=O)[C@H]2CCCN2C(=O)[C@H](Cc2ccc(O)cc2)NC(=O)[C@H](CCCCN)NC(=O)[C@H](Cc2c[nH]c3ccccc23)NC1=O [Example 5] (cyclo(IWKY[dP][Aze]))
5,54 ± 12,NCCCC[C@@H]1NC(=O)[C@H](Cc2c[nH]c3ccccc23)NC(=O)[C@H](Cc2ccccc2)NC(=O)[C@@H]2Cc3ccccc3CN2C(=O)[C@H]2CCCN2C(=O)[C@H](Cc2ccc(O)cc2)NC1=O [Example 1] (cyclo(FWKY[dP][Tic]))
6,134 ± 61,NCCCC[C@@H]1NC(=O)[C@H](Cc2c[nH]c3ccccc23)NC(=O)[C@H](CCC(N)=O)NC(=O)[C@@H]2CCN2C(=O)[C@H]2CCCN2C(=O)[C@H](Cc2ccc(O)cc2)NC1=O [Example 6] (cyclo(QWKY[dP][Aze]))
7,160 ± 81,COc1ccc2c3c1CNC(=O)[C@H](Cc1ccc(O)cc1)NC(=O)[C@H](CCCCN)NC(=O)[C@H](Cc1c[nH]c4ccccc14)NC(=O)[C@H]([C@@H](C)O)NC(=O)Cc1c(OC)ccc(c1O3)C2(C)C [Example 9]
8,20 ± 5,NCCCC[C@@H]1NC(=O)[C@H](Cc2c[nH]c3ccccc23)NC(=O)[C@H](Cc2ccccc2)NC(=O)[C@@H]2CCN2C(=O)[C@H]2CCCN2C(=O)[C@H](Cc2ccc(O)cc2)NC1=O [Example 4] (cyclo(FWKY[dP][Aze]))

# Target: T2, human CCR10 (Homo sapiens, UniProt P46092)
# T2 construct: expressed in transfected cells; host or cells: mouse pre-B cell line 300-19
# T2 sequence (P46092 1-362): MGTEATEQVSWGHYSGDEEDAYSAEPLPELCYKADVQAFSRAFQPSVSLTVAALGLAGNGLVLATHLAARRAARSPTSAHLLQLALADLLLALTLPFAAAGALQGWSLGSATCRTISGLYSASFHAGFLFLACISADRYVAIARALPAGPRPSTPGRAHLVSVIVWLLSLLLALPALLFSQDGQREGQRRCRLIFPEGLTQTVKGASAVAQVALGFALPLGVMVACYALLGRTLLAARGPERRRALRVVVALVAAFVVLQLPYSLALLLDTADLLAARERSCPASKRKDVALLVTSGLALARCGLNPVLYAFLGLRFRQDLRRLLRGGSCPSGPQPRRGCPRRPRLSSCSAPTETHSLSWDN
# Assay: Calcium flux antagonism assay with human CCL27
# Format: cell-based
# Details: 300-19 cells with human CCR10, human CCL27, read-out: IC50% (μM), CCR10 receptor
# Method: as §1
# Peptides for CCR10 (Marchese et. al. 1994, Homey et. al.) and CXCR3 (Loetscher et. al. 1998, Marchese et. al. 1995) antagonism were assayed in a mouse pre-B cell line 300-19 stably transfected with either human CCR10 or CXCR3 (Marchese et. al. 1995). Antagonism at each receptor was measured with a calcium flux assay in these cells as described above for UTR2 assays using human CCL27 and human CXCL10 (Cole et. al.) for CCR10 and CXCR3 respectively.
# Selectivity was measured using the calcium flux assay on a panel of human chemokine receptor bearing cell lines (CCR1, CCR2, CCR3, CCR4, CCR5, CCR6, CCR7, CCR8, CCR9, CCR10, CXCR1, CXCR2, CXCR2, CXCR4, CXCR6 and CXCCR1) using the same method as above
row,IC50 [µM],Compound
1,0.31,CC(C)[C@H]1NC(=O)[C@H](Cc2c[nH]c3ccccc23)NC(=O)[C@@H]2Cc3ccccc3CN2C(=O)[C@H]2CCCN2C(=O)[C@H](CCCN)NC(=O)[C@H](Cc2c[nH]c3ccccc23)NC1=O [Example 17] (cyclo(W[dV]W[Orn][dP][Tic]))
2,0.29,CC(C)[C@H]1NC(=O)[C@H](Cc2c[nH]c3ccccc23)NC(=O)[C@@H]2Cc3ccccc3CN2C(=O)[C@H]2CCCN2C(=O)[C@H](CCCCN)NC(=O)[C@H](Cc2c[nH]c3ccccc23)NC1=O [Example 18] (cyclo(W[dV]WK[dP][Tic]))

# Target: T1, human UTR2 receptor
# Assay: Calcium mobilization assay, antagonist activity at urotensin receptor
# Format: cell-based
# Details: pre-incubation before urotensin, 300-19 cells with human UTR2, read-out: IC50% (μM) ± SD, Urotensin receptor
# Method: as §1
row,IC50 [µM],Compound
1,6.2 ± 1.5,CC[C@H](C)[C@@H]1NC(=O)[C@@H]2Cc3ccccc3CN2C(=O)[C@H]2CCCN2C(=O)[C@H]([C@@H](C)CC)NC(=O)C(C)(C)NC(=O)[C@@H](CCCNC(=N)N)NC1=O [Example 19] (cyclo(I[dR][Aib]I[dP][Tic]))
